Measurements: US20030018166A1 (priority 2000, published 2003)
Entries after “also recorded” stand apart in the source; their conditions may differ. Where two headings read alike, the source gives them in different places.

Legend:
[1] = target: recombinant Icl (isocitrate lyase) (Mycobacterium tuberculosis, UniProt P9WKK7); experiment: biochemical; assay type: biochemical, M. tuberculosis (CSU93); conditions: for Ki: read-out: inhibition constants; for inhibit the activity to approximately: 5 mM inhibitor concentration
[2] = tested on: O=C(O)CC(C(=O)O)C(O)C(=O)O; experiment: purified protein, by the assay type
[3] = tested on: wild type M. smegmatis mc^2155; assay type: cell-based; conditions: discs 30 mM and 60 mM

Sequence of recombinant Icl (isocitrate lyase) (P9WKK7 whole entry): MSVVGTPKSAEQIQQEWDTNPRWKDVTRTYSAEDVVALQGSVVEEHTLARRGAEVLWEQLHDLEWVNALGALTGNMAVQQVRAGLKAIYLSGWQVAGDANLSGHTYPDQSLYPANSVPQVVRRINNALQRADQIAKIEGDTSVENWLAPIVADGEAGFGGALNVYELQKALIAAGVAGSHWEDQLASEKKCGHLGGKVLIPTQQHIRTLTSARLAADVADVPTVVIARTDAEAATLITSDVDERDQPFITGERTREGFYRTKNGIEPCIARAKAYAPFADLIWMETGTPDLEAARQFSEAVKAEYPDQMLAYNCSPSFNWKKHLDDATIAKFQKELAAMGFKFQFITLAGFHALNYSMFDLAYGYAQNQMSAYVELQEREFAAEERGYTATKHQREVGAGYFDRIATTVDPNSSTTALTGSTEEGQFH

Row | Molecule | Ki [1] [µM] | inhibitory effect on Icl activity [1] | also measured
1 | C=C(CC(=O)O)C(=O)O [Itaconate] | 120 |  | 
2 | O=C(O)[C@H](O)COP(=O)(O)O [3-Phosphoglycerate] |  | no inhibitory effect | 
3 | O=C(O)C(=O)O [Oxalate] |  |  | inhibit the activity to approximately [1]: approximately 50%
4 | recombinant AceA (isocitrate lyase) (Mycobacterium tuberculosis CDC1551) |  |  | Km ([2]; other: Tricine-HCl buffer at pH 7.5, pH 7.5): 1300 µM
5 | O=C(O)CCC(=O)O [succinate] |  |  | inhibitory effect on the recombinant enzyme [1]: did not reveal any inhibitory effect
6 | O=C(COP(=O)(O)O)[C@@H](O)[C@H](O)[C@H](O)COP(=O)(O)O [fructose-1,6-bisphosphate] |  | no inhibitory effect | 
7 | O=C(O)CC[N+](=O)[O-] [3-nitropropionate] | 3 |  | effect on growth, inhibition zone around disc ([3]; grown on acetate): restricted to growth on acetate; also recorded: inhibitory; effect on growth, inhibition zone around disc ([3]; grown on glucose): not observed; also recorded: no effect
8 | O=C(O)[C@H](O)[C@@H](O)[C@H](O)[C@H](O)COP(=O)(O)O [6-phosphogluconate] |  | no inhibitory effect | 
9 | recombinant Icl (isocitrate lyase) (Mycobacterium tuberculosis H37Rv) |  |  | Km ([2]; other: Hanes-Woolf plot): 145 µM
10 | O=C(O)C(=O)CBr [bromopyruvate, 3-bromopyruvate] | 120 |  | effect on growth, inhibition zone around disc ([3]; grown on glucose): no effect
11 | O=C(O)CC(O)C(=O)O (stereo not shown) [malate] |  |  | inhibit the activity to approximately [1]: approximately 50%
12 | O=C(O)CC(=O)O [malonic acid] |  | no inhibitory effect | 
13 | C=C1CC(=O)OC1=O [itaconic anhydride] | 190 |  | 
